From PMC10004195, “Novel Dual-Target Kinase Inhibitors of EGFR and ALK Were Designed, Synthesized, and Induced Cell Apoptosis in Non-Small Cell Lung Cancer” (Molecules, 2023)

Assays:
[1] = test system: H522 cells; experiment: CCK8 antiproliferative assay, H522 cells; format: cell-based; settings: Homo sapiens, NCI-H522, 72 h
Text: The human cancer cell lines (H1975, H2228) used in this study were purchased from the Guangzhou ginny ou biotechnology Co., Ltd. (Guangzhou, China). The human cancer cell lines (NCI-H522) used in this study were purchased from the Shenzhen Haodi Huatuo Biotechnology Co., LTD (Shenzhen, China). The human cancer cell lines (LOVO, HLF, BJ, LO2) used in this study were purchased from the Laboratory Animal Service Center at Sun Yat-sen University (Guangzhou, China). Cell lines were cultivated in 1640 containing 10% (v/v) heat-inactivated fetal bovine serum (FBS), 100 units/mL penicillin, and 100 μg/mL streptomycin. Cell lines LOVO, HLF, BJ, and LO2 were cultivated in DMEM containing 10% (v/v) heat-inactivated fetal bovine serum (FBS), 100 units/mL penicillin, and 100 μg/mL streptomycin.

[2] = test system: HK2 (human kidney proximal convoluted tubule epithelial cells); experiment: Cytotoxicity test on nontumorigenic cells, HK2; format: cell-based
Text: (§1) It is critical to evaluate the balance between the safety and efficacy of drugs for the development of new drugs; thus, we then conducted a cytotoxicity test on […] types of nontumorigenic cell lines from different origins, including LO2 (human normal liver cells), HK2 (human kidney proximal convoluted tubule epithelial cells), HLF (human embryonic lung fibroblast), 293A (human embryonic kidney cells), and HUVEC (human umbilical vein endothelial cells). […] In addition, we evaluated the compound’s safety in vivo by performing acute toxicity tests in mice, and 9j was injected intravenously at concentrations of 100 mg/kg, 150 mg/kg, and 300 mg/kg.
(§2) A total of 7000 cells per well were seeded in a 96-well plate with at least three technical replicates; then, exposed to different concentrations (10, 5, 1, 0.1, 0.05, 0.01 uM) of the test compounds for 72 h. After the treatment, CCK8 (Sigma, St. Louis, MO, USA) was added to each well under sterile conditions (to a final concentration of 10% of the total volume) and the plates were incubated for 2–4 h at 37 °C. Absorbance was measured at 450 nm in a microplate reader.

[3] = test system: HLF (human embryonic lung fibroblast); experiment: Cytotoxicity test on nontumorigenic cells, HLF; format: cell-based
Text: as §1, §2

[4] = target: EGFR^L858R/T790M (Homo sapiens, UniProt P00533, L858R/T790M); experiment: Kinase ELISA assay, EGFR L858R/T790M; format: biochemical; settings: read-out: IC50 against EGFR^L858R/T790M
Procedure: (§3) Four kinases (EGFR, EGFR^L858R/T790M, ALK, and EML4-ALK) were tested using an ELISA assay. […] There was no effect on the wild-type EGFR or ALK kinases triggered by the compound. Consequently, the selection of the compound was good as both compounds balanced IC50 against EGFR and ALK, respectively. […] Following that, fluorescence assays were used to measure the phosphorylation of the EGFR and ALK protein affect with compound 9j at the cellular level. […] Next, WB assay was used to test the protein expression of H1975 and H2228 cells at the concentration of 5, 10, and 100 nM.

[5] = test system: mice; experiment: Acute toxicity test in mice; settings: injected intravenously, 100, 150 and 300 mg/kg (Figure S1)
Text: as §1

[6] = test system: phosphorylated EGFR (p-EGFR); experiment: Immunofluorescence assay of phosphorylated EGFR; format: cell-based, human; settings: fluorescence assay, treatment for 2 to 4 h
Procedure: as §3
(§4) Figure 2 (A) The activity of compound 9j against four kinases (EGFR, ALK, EGFR ^L858R T790M, and EML4-ALK). (B) H1975 and H2228 cells were treated with 9j for 2–4 h; the staining for phosphorylated EGFR (p-EGFR) and phosphorylated ALK (p-ALK) was shown as red fluorescence. (C) WB analysis of phosphorylated proteins in drug-treated H1975 and H2228 cells.

[7] = test system: phosphorylated ALK (p-ALK); experiment: Immunofluorescence assay of phosphorylated ALK; format: cell-based, human; settings: fluorescence assay, treatment for 2 to 4 h
Procedure: as §3, §4

[8] = test system: p-EGFR; experiment: Western blot, p-EGFR; format: cell-based, human; settings: WB, 5, 10 and 100 nM, 3 h treatment
Procedure: as §3
(§5) H1975 (H2228) cells seeded in 60 mm dishes at a density of 5 × 10^5 cells/well were incubated with or without compound 9j (0, 5, 10, 100 nM) for 2–4 h. After treatment, cells were stained as previously described.

[9] = test system: p-AKT; experiment: Western blot, p-AKT; format: cell-based, human; settings: WB, 5, 10 and 100 nM, 3 h treatment
Procedure: as §3, §5

[10] = test system: p-ALK; experiment: Western blot, p-ALK; format: cell-based, human; settings: WB, 5, 10 and 100 nM, 3 h treatment
Procedure: as §3, §5

[11] = test system: H1975 cells; experiment: Transwell migration and invasion assay; format: cell-based, human
Procedure: The migration and invasion of tumor cells directly contribute to metastasis. Metastasis is the leading cause of death in cancer patients. To determine the ability of 9j to inhibit tumor cell migration, the cell scratching assay was performed. Following scratching, phase contrast pictures were taken of the scratched and healing cell monolayers.
Migration assay was performed using an 8 um pore Boyden chamber (24-well, #353097, Corning, NY, USA), and incubated in the presence or absence of compound 9j. A total of 50,000 cells were seeded in serum-free medium in the top chamber and allowed to migrate for 48 h toward the bottom chamber containing 10% fetal bovine serum medium. Cells were fixed and permeabilized with cold 70% ethanol and methanol, and stained with 0.4% crystal violet. The average number of migrating cells was evaluated from at least four independent microscope fields.

Sequence of EGFR^L858R/T790M (P00533 25-1210 T790M/L858R): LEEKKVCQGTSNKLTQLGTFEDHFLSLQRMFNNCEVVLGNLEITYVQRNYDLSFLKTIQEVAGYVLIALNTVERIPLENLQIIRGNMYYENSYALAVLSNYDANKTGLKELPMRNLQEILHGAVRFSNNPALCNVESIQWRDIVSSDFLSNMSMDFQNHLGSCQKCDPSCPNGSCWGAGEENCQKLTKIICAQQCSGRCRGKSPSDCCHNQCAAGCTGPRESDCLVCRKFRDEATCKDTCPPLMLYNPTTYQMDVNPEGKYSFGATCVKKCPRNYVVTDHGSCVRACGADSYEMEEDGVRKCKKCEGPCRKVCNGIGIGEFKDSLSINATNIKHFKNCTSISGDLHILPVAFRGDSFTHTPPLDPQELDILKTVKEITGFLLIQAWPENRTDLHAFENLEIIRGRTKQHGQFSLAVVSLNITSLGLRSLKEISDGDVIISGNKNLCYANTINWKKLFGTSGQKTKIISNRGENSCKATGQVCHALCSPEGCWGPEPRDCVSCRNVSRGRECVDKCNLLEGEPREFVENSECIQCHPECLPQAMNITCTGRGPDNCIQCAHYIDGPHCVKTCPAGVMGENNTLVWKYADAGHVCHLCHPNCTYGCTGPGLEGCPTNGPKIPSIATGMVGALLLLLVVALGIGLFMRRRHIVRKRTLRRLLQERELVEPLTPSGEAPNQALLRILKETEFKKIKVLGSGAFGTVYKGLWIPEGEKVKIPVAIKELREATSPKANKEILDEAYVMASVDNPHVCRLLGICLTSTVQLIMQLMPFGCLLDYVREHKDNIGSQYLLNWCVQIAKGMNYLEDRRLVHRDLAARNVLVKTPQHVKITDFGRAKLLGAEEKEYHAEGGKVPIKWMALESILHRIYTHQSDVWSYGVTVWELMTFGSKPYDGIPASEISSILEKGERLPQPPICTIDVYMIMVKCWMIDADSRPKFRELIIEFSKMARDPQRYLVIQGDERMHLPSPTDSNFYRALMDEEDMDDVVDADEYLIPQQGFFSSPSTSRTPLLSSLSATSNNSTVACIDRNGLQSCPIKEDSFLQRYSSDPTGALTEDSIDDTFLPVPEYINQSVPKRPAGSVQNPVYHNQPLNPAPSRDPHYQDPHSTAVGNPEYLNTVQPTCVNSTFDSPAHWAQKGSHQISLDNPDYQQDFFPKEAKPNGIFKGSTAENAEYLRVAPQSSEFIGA

For `C=CC(=O)Nc1cc(Nc2ncc(Cl)c(Nc3ccc(Cl)cc3[S+]([O-])C(C)C)n2)c(OC)cc1C1CCN(C)CC1` (stereo not shown) [9j, N-(5-((5-Chloro-4-((4-chloro-2-(isopropylsulfinyl)phenyl)amino)pyrimidin-2-yl)amino)-4-methoxy-2-(1-methylpiperidin-4-yl)phenyl)acrylamide], the IC50 [1] was > 10 µM, the “Selectivity Ratio (IC50 human normal cells)/(IC50 H1975), HK2” value ([2]; HK2 vs H1975) was 329.6 and the IC50 ([2]; Homo sapiens, Epithelial cell, HK2, mean ± SE, read-out: Toxicity to normal cells, IC50 HK2) was 25.71 ± 0.08 µM. The “Selectivity Ratio (IC50 human normal cells)/(IC50 H1975), HLF” value ([3]; HLF vs H1975) was 357.3, the IC50 ([3]; Homo sapiens, Fibroblast, HLF, mean ± SE, read-out: Toxicity to normal cells, IC50 HLF) was 27.87 ± 0.01 µM and the IC50 [4] was 0.0357 ± 0.0009 µM. The “HE staining of lung and heart tissues” value [5] was “did not indicate toxicity”, the “expression level of phosphorylated EGFR protein” value [6] was “decreased significantly” and the “expression level of phosphorylated ALK protein” value [7] was “decreased significantly”. For the same compound, the “expression of p-EGFR” value [8] was “inhibited”, the “expression of p-AKT” value [9] was “inhibited” and the “expression of p-ALK” value [10] was “inhibited”. For the same compound, the invasion ability [11] was “reduced its invasion ability in a concentration-dependent manner”.
